Experimental findings from patent US11557737B2, “Compound, coating composition comprising same, organic light-emitting element using same, and manufacturing method therefor” (LG Chem, Ltd., priority 2018, dated 2023) are described below.

A short description of this data set: Solubility measurement (compound dissolved in solvent, left 1 day, precipitate checked by Tyndall effect). Type of data set: physicochemical. To be noted: dissolved in a solvent, left to stand for 1 day, laser / Tyndall effect. How it is done: In the present specification, the “solubility” means a property in which a solute is dissolved in a specific solvent, and may be denoted as a g value of the solute that may be dissolved in 100 g of the solvent at a predetermined temperature.
The method of measuring the solubility is as follows. First, after a compound was dissolved in a solvent, the resulting solution was left to stand for 1 day. Thereafter, by passing a laser through the solution, it was observed whether a precipitate was formed through the Tyndall effect, and the solubility was measured.

For the molecule `C[Si](C)(C)c1ccc(N(c2ccccc2)c2ccc3ccc4c(N(c5ccccc5)c5ccc([Si](C)(C)C)cc5)ccc5ccc2c3c54)cc1` [Compound C], the Solubility worked out at 0.1 wt %.
With `C[Si](C)(C)c1ccc(-c2ccc(N(c3ccc4ccc5c(N(c6ccc(-c7ccc([Si](C)(C)C)cc7)cc6)c6cccc7c6oc6ccccc67)ccc6ccc3c4c65)c3cccc4c3oc3ccccc34)cc2)cc1` [Compound D], the Solubility is listed as 0.05 wt %.
Under `c1ccc([Si](c2ccccc2)(c2ccccc2)c2ccc(-c3ccc(N(c4ccc(-c5cccc6c5oc5ccccc56)cc4)c4cc5ccc6cccc7ccc(c4)c5c67)cc3)cc2)cc1` [Compound E] stands 2 wt %; under `c1ccc([Si](c2ccccc2)(c2ccccc2)c2ccc(-c3ccc(N(c4ccc(-c5ccc6c(c5)oc5ccccc56)cc4)c4cc5ccc6cccc7ccc(c4)c5c67)cc3)cc2)cc1` [Compound F], 2 wt %.
